The text below walks through data of US20230183818A1, “ANTIBIOTIC SUSCEPTIBILITY OF MICROORGANISMS AND RELATED MARKERS, COMPOSITIONS, METHODS AND SYSTEMS” (priority 2018, published 2023).

Values after ≈ are worked out from the molar mass of the structure shown. Some results are limits rather than exact numbers.

The first assay deals with Neisseria gonorrhoeae. The note with it: resistant isolates, all time points (0-15 min).
Method: Cultures were diluted (5X) into HFB. Each isolate culture was split into “treated” and “control” tubes.
During incubation, samples were collected for RNA sequencing at 5, 10, and 15 min (300 µL aliquot of sample was mixed into 600 µL of Qiagen RNA Protect Reagent (Qiagen, Hilden, Germany) for immediate RNA stabilization).
RNA was extracted using the Enzymatic Lysis of Bacteria protocol of the Qiagen RNeasy Mini Kit and processed according to the manufacturer’s protocol. DNA digestion was performed during extraction using the Qiagen RNase-Free DNase Set.
The quality of extracted RNA was measured using an Agilent 2200 TapeStation (Agilent, Santa Clara, CA, USA). Extracted RNA samples were prepared for sequencing using the NEBNext Ultra RNA Library Prep Kit for Illumina (New England Biolabs, Ipswitch, MA, USA) and the NEBNExt Multiplex Oligos for Illumina. […] Raw reads from the sequenced libraries were subjected to quality control to filter out low-quality reads and trim the adaptor sequences using Trimmomatic (version 0.35).
The reads were aligned to the FA 1090 strain of N. gonorrhoeae (NCBI Reference Sequence: NC_002946.2) using Bowtie2 (version 2.2.5) and quantified using the Subread package (version 1.5.0-p1). A pseudocount of 1 was added to the gene quantification; gene expression was defined in transcripts per million (TPM). […]
Turning to `O=C(O)c1cn(C2CC2)c2cc(N3CCNCC3)c(F)cc2c1=O` [Ciprofloxacin, ciprofloxacin], the “transcriptional response in resistant isolates” value was “did not significantly respond”.

The assay is the same for the next values; noted with them: susceptible isolates, 15 min exposure.
`O=C(O)c1cn(C2CC2)c2cc(N3CCNCC3)c(F)cc2c1=O` [Ciprofloxacin, ciprofloxacin]: the “expression response of the six candidate markers (porB, rpmB, tig, yebC, pilB, cysK)” value is given as “downregulation”.

The next assay concerns Neisseria gonorrhoeae. The following applies: Neisseria gonorrhoeae; cited from earlier work.
As to `O=C(O)c1cn(C2CC2)c2cc(N3CCNCC3)c(F)cc2c1=O` [Ciprofloxacin, ciprofloxacin], the “resistant MIC breakpoint” value is 1.00 microgram/mL and the “susceptible MIC breakpoint” value is on record as 0.06 microgram/mL.

The assay is the same for the next values; noted with them: cited from earlier work.
For `CO/N=C(\C(=O)N[C@@H]1C(=O)N2C(C(=O)[O-])=C(C[N+]3(C)CCCC3)CS[C@H]12)c1csc(N)n1` [Cefepime], the “MIC Breakpoint, S (susceptible)” value is not above 0.5 µg/mL.

For the compound `CO/N=C(\C(=O)N[C@@H]1C(=O)N2C(C(=O)O)=C(C)CS[C@H]12)c1csc(N)n1` [Cefetamet], the “MIC Breakpoint, S (susceptible)” value is given as not above 0.5 µg/mL.

In the case of `CO[C@@]1(NC(=O)CSCC#N)C(=O)N2C(C(=O)O)=C(CSc3nnnn3C)CS[C@@H]21` [Cefmetazole], the “MIC Breakpoint, I (intermediate)” value is on record as 4 µg/mL (≈ 8.48 µM); the “MIC Breakpoint, R (resistant)” value is not below 8 µg/mL; the “MIC Breakpoint, S (susceptible)” value is not above 2 µg/mL.

On to `CO/N=C(\C(=O)N[C@@H]1C(=O)N2C(C(=O)O)=C(COC(C)=O)CS[C@H]12)c1csc(N)n1` [Cefotaxime], for which the “MIC Breakpoint, S (susceptible)” value is on record as not above 0.5 µg/mL.

With `CO[C@@]1(NC(=O)Cc2cccs2)C(=O)N2C(C(=O)O)=C(COC(N)=O)CS[C@@H]21` [Cefoxitin], the “MIC Breakpoint, I (intermediate)” value was 4 µg/mL (≈ 9.36 µM); the “MIC Breakpoint, R (resistant)” value is listed as not below 8 µg/mL; the “MIC Breakpoint, S (susceptible)” value is not above 2 µg/mL.

On to `CC(C)(O/N=C(\C(=O)N[C@@H]1C(=O)N2C(C(=O)[O-])=C(C[n+]3ccccc3)CS[C@H]12)c1csc(N)n1)C(=O)O` [Ceftazidime], for which the “MIC Breakpoint, S (susceptible)” value is recorded as not above 0.5 µg/mL.

For the compound `CO/N=C(\C(=O)N[C@@H]1C(=O)N2C(C(=O)O)=CCS[C@H]12)c1csc(N)n1` [Ceftizoxime], the “MIC Breakpoint, S (susceptible)” value is reported as not above 0.5 µg/mL.

In the case of `CO/N=C(\C(=O)N[C@@H]1C(=O)N2C(C(=O)O)=C(CSc3nc(=O)c(=O)[nH]n3C)CS[C@H]12)c1csc(N)n1` [Ceftriaxone], the “MIC Breakpoint, S (susceptible)” value was not above 0.25 µg/mL.

Consider `CO/N=C(\C(=O)N[C@@H]1C(=O)N2C(C(=O)O)=C(COC(N)=O)CS[C@H]12)c1ccco1` [Cefuroxime], for which the “MIC Breakpoint, I (intermediate)” value is reported as 2 µg/mL (≈ 4.71 µM); the “MIC Breakpoint, R (resistant)” value is on record as not below 4 µg/mL; the “MIC Breakpoint, S (susceptible)” value is not above 1 µg/mL.

Regarding `O=C(O)c1cn(C2CC2)c2cc(N3CCNCC3)c(F)cc2c1=O` [Ciprofloxacin, ciprofloxacin], the “MIC Breakpoint, I (intermediate)” value was 0.12 to 0.5 µg/mL; the “MIC Breakpoint, R (resistant)” value is not below 1 µg/mL; the “MIC Breakpoint, S (susceptible)” value is given as not above 0.06 µg/mL.

For `CCn1cc(C(=O)O)c(=O)c2cc(F)c(N3CCNCC3)nc21` [Enoxacin], the “MIC Breakpoint, I (intermediate)” value is reported as 1 µg/mL (≈ 3.12 µM); the “MIC Breakpoint, R (resistant)” value is not below 2 µg/mL; the “MIC Breakpoint, S (susceptible)” value is listed as not above 0.5 µg/mL.

Regarding `CN1CCN(c2c(F)cc3c(=O)c(C(=O)O)cn(CCF)c3c2F)CC1` [Fleroxacin], the “MIC Breakpoint, I (intermediate)” value is listed as 0.5 µg/mL (≈ 1.35 µM); the “MIC Breakpoint, R (resistant)” value is not below 1 µg/mL; the “MIC Breakpoint, S (susceptible)” value is not above 0.25 µg/mL.

Consider `CCn1cc(C(=O)O)c(=O)c2cc(F)c(N3CCNC(C)C3)c(F)c21` (stereo not shown) [Lomefloxacin], for which the “MIC Breakpoint, I (intermediate)” value is 0.25 to 1 µg/mL; the “MIC Breakpoint, R (resistant)” value is not below 2 µg/mL; the “MIC Breakpoint, S (susceptible)” value was not above 0.12 µg/mL.

With `CN[C@@H]1[C@H](O)[C@H](NC)[C@H]2O[C@@]3(O)C(=O)C[C@@H](C)O[C@H]3O[C@@H]2[C@H]1O` [Spectinomycin], the “MIC Breakpoint, I (intermediate)” value is listed as 64 µg/mL (≈ 193 µM); the “MIC Breakpoint, R (resistant)” value is recorded as not below 128 µg/mL; the “MIC Breakpoint, S (susceptible)” value was not above 32 µg/mL.

As for Penicillin, the “MIC Breakpoint, I (intermediate)” value was 0.12 to 1 µg/mL; the “MIC Breakpoint, R (resistant)” value is on record as not below 2 µg/mL; the “MIC Breakpoint, S (susceptible)” value is not above 0.06 µg/mL.
